Reference: patent US7141592B2, “Substituted oxadiazolidinediones” (Wyeth, priority 2003, dated 2006)

The compounds below were run against T1, recombinant human plasminogen activator inhibitor-1 (PAI-1) (Homo sapiens, UniProt P05121) (assay: Primary screen for the PAI-1 inhibition (chromogenic tPA activity, Spectrozyme-tPA)). Conditions: compound at 100 μM.
T1 construct: purchased Molecular Innovations, Royal Oak, Mich
Type: biochemical
Procedure: Test compounds are dissolved in DMSO at a final concentration of 10 mM, then diluted 100× in physiologic buffer. The inhibitory assay is initiated by the addition of the substituted oxadiazolidinedione (1–100 μM final concentration, maximun DMSO concentration of 0.2%) in a pH 6.6 buffer containing 140 nM recombinant human plasminogen activator inhibitor-1 (PAI-1; Molecular Innovations, Royal Oak, Mich.). Following a 1 hour incubation at room temperature, 70 nM of recombinant human tissue plasminogen activator (tPA) is added, and the combination of the substituted oxadiazolidinedione, PAI-1 and tPA is incubated for an additional 30 minutes. Following the second incubation, Spectrozyme-tPA (American Diagnostica, Greenwich, Conn.), a chromogenic substrate for tPA, is added and absorbance read at 405 nm at 0 and 60 minutes. Relative PAI-1 inhibition is equal to the residual tPA activity in the presence of the test compound and PAI-1. Control treatments include the complete inhibition of tPA by PAI-1 at the molar ratio employed (2:1), and the absence of any effect of the substituted oxadiazolidinedione on tPA alone.

T1 sequence (P05121 24-402): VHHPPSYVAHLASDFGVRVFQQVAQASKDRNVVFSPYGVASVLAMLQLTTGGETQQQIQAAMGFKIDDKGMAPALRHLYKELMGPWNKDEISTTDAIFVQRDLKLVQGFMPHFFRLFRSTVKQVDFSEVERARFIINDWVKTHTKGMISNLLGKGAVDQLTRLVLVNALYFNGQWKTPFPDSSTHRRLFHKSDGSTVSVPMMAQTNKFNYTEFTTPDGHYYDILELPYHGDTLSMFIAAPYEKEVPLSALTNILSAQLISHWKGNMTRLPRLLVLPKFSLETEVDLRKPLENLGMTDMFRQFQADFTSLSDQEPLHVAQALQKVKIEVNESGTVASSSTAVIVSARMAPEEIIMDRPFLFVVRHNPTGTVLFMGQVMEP

| inhibition at 100 µM [%] | Compound |
| --- | --- |
| 87 | C=CCn1cc(Cn2oc(=O)[nH]c2=O)c2cc(OCc3ccc(Cl)c(Cl)c3)ccc21 [Compound 34, 2-({1-allyl-5-[(3,4-dichlorobenzyl)oxy]-1H-indol-3-yl}methyl)-1,2,4-oxadiazolidine-3,5-dione] |
| 100 | O=c1[nH]c(=O)n(Cc2cccc(-c3cccc(OCc4ccccc4Cl)c3)c2)o1 [Compound 36, 2-({3′-[(2-chlorobenzyl)oxy]-1,1′-biphenyl-3-yl}methyl)-1,2,4-oxadiazolidine-3,5-dione] |
| 69 | O=c1[nH]c(=O)n(Cc2cccc(-c3cccc(OCc4cc(C(F)(F)F)cc(C(F)(F)F)c4)c3)c2)o1 [Compound 38, 2-[(3′-{[3,5-bis(trifluoromethyl)benzyl]oxy}-1,1′-biphenyl-3-yl)methyl]-1,2,4-oxadiazolidine-3,5-dione] |
| 99 | O=c1[nH]c(=O)n(Cc2cccc(-c3cccc(OCc4cccc(Cl)c4)c3)c2)o1 [Compound 39, 2-({3′-[(3-chlorobenzyl)oxy]-1,1′-biphenyl-3-yl}methyl)-1,2,4-oxadiazolidine-3,5-dione] |
| 96 | O=c1[nH]c(=O)n(Cc2cccc(-c3cccc(OCc4ccccc4)c3)c2)o1 [Compound 40, 2-{[3′-(benzyloxy)-1,1′-biphenyl-3-yl]methyl}-1,2,4-oxadiazolidine-3,5-dione] |
| 100 | O=c1[nH]c(=O)n(Cc2cccc(-c3cccc(OCc4ccc(Cl)cc4)c3)c2)o1 [Compound 42, 2-({3′-[(4-chlorobenzyl)oxy]-1,1′-biphenyl-3-yl}methyl)-1,2,4-oxadiazolidine-3,5-dione] |
| 100 | O=c1[nH]c(=O)n(Cc2cccc(-c3cccc(OCc4ccc(Cl)c(Cl)c4)c3)c2)o1 [Compound 43, 2-({3′-[(3,4-dichlorobenzyl)oxy]-1,1′-biphenyl-3-yl}methyl)-1,2,4-oxadiazolidine-3,5-dione] |
| 28 | O=c1[nH]c(=O)n(Cc2cccc(-c3cccc(OCc4ccc5ccccc5c4)c3)c2)o1 [Compound 44, 2-{[3′-(2-naphthylmethoxy)-1,1′-biphenyl-3-yl]methyl}-1,2,4-oxadiazolidine-3,5-dione] |
| 94 | Cc1ccc(COc2cccc(-c3cccc(Cn4oc(=O)[nH]c4=O)c3)c2)cc1 [Compound 45, 2-({3′-[(4-methylbenzyl)oxy]-1,1′-biphenyl-3-yl}methyl)-1,2,4-oxadiazolidine-3,5-dione] |
| 80 | Cc1cccc(COc2cccc(-c3cccc(Cn4oc(=O)[nH]c4=O)c3)c2)c1 [Compound 46, 2-({3′-[(3-methylbenzyl)oxy]-1,1′-biphenyl-3-yl}methyl)-1,2,4-oxadiazolidine-3,5-dione] |
| 88 | O=c1[nH]c(=O)n(Cc2cccc(-c3cccc(OCc4c(Cl)cccc4Cl)c3)c2)o1 [Compound 47, 2-({3′-[(2,6-dichlorobenzyl)oxy]-1,1′-biphenyl-3-yl}methyl)-1,2,4-oxadiazolidine-3,5-dione] |
| 60 | CC(C)(C)c1ccc(COc2cccc(-c3ccc(Cn4oc(=O)[nH]c4=O)cc3)c2)cc1 [Compound 53, 2-({3′-[(4-tert-butylbenzyl)oxy]-1,1′-biphenyl-4-yl}methyl)-1,2,4-oxadiazolidine-3,5-dione] |
| 10 | O=c1[nH]c(=O)n(Cc2ccc(-c3cccc(OCc4ccc(Br)cc4)c3)cc2)o1 [Compound 54, 2-({3′-[(4-bromobenzyl)oxy]-1,1′-biphenyl-4-yl}methyl)-1,2,4-oxadiazolidine-3,5-dione] |
| 41 | O=c1[nH]c(=O)n(Cc2ccc(-c3ccc(OCc4cccc(Br)c4)cc3)cc2)o1 [Compound 55, 2-({4′-[(3-bromobenzyl)oxy]-1,1′-biphenyl-4-yl}methyl)-1,2,4-oxadiazolidine-3,5-dione] |
| 65 | O=c1[nH]c(=O)n(Cc2ccc(C#Cc3ccccc3)cc2)o1 [Compound 56, 2-[4-(phenylethynyl)benzyl]-1,2,4-oxadiazolidine-3,5-dione] |
| 56 | CCCCC#Cc1ccc(Cn2oc(=O)[nH]c2=O)cc1 [Compound 57, 2-(4-hex-1-ynylbenzyl)-1,2,4-oxadiazolidine-3,5-dione] |
| 38 | O=c1[nH]c(=O)n(Cc2cccc(C#Cc3ccccc3)c2)o1 [Compound 60, 2-[3-(phenylethynyl)benzyl]-1,2,4-oxadiazolidine-3,5-dione] |
| 87 | O=c1[nH]c(=O)n(Cc2ccc(C#CCOc3cc(C(F)(F)F)cc(C(F)(F)F)c3)cc2)o1 [Compound 61, 2-(4-{3-[3,5-bis(trifluoromethyl)phenoxy]prop-1-ynyl}benzyl)-1,2,4-oxadiazolidine-3,5-dione] |

| inhibition at 100 µM [%] | Compound |
| --- | --- |
| 82 | O=c1[nH]c(=O)n(Cc2ccc(C#CCOc3cc(Cl)cc(Cl)c3)cc2)o1 [Compound 62, 2-{4-[3-(3,5-dichlorophenoxy)prop-1-ynyl]benzyl}-1,2,4-oxadiazolidine-3,5-dione] |
| 85 | O=c1[nH]c(=O)n(Cc2ccc(C#CCOc3cccc(Cl)c3)cc2)o1 [Compound 63, 2-{4-[3-(3-chlorophenoxy)prop-1-ynyl]benzyl}-1,2,4-oxadiazolidine-3,5-dione] |
| 77 | CC(C)(C)c1ccc(OCC#Cc2cccc(Cn3oc(=O)[nH]c3=O)c2)cc1 [Compound 65, 2-{3-[3-(4-tert-butylphenoxy)prop-1-ynyl]benzyl}-1,2,4-oxadiazolidine-3,5-dione] |
| 85 | O=c1[nH]c(=O)n(Cc2cccc(C#CCOc3ccc(Br)cc3)c2)o1 [Compound 66, 2-{3-[3-(4-bromophenoxy)prop-1-ynyl]benzyl}-1,2,4-oxadiazolidine-3,5-dione] |
| 84 | O=c1[nH]c(=O)n(Cc2cccc(C#CCOc3cc(C(F)(F)F)cc(C(F)(F)F)c3)c2)o1 [Compound 67, 2-(3-{3-[3,5-bis(trifluoromethyl)phenoxy]prop-1-ynyl}benzyl)-1,2,4-oxadiazolidine-3,5-dione] |
| 93 | O=c1[nH]c(=O)n(Cc2cccc(C#CCOc3cc(Cl)cc(Cl)c3)c2)o1 [Compound 68, 2-{3-[3-(3,5-dichlorophenoxy)prop-1-ynyl]benzyl}-1,2,4-oxadiazolidine-3,5-dione] |
| 85 | O=c1[nH]c(=O)n(Cc2cccc(C#CCOc3cccc(Cl)c3)c2)o1 [Compound 69, 2-{3-[3-(3-chlorophenoxy)prop-1-ynyl]benzyl}-1,2,4-oxadiazolidine-3,5-dione] |
| 85 | O=c1[nH]c(=O)n(Cc2cc(OCc3cccc(Cl)c3)cc(OCc3cccc(Cl)c3)c2)o1 [Compound 71, 2-{3,5-bis[(3-chlorobenzyl)oxy]benzyl}-1,2,4-oxadiazolidine-3,5-dione] |
| 87 | O=c1[nH]c(=O)n(Cc2cc(OCc3ccc(C(F)(F)F)cc3)cc(OCc3ccc(C(F)(F)F)cc3)c2)o1 [Compound 72, 2-(3,5-bis{[4-(trifluoromethyl)benzyl]oxy}benzyl)-1,2,4-oxadiazolidine-3,5-dione] |
| 81 | Cc1cccc(COc2cc(Cn3oc(=O)[nH]c3=O)cc(OCc3cccc(C)c3)c2)c1 [Compound 73, 2-{3,5-bis[(3-methylbenzyl)oxy]benzyl}-1,2,4-oxadiazolidine-3,5-dione] |
| 92 | O=c1[nH]c(=O)n(Cc2cc(OCc3cccc(Br)c3)cc(OCc3cccc(Br)c3)c2)o1 [Compound 74, 2-{3,5-bis[(3-bromobenzyl)oxy]benzyl}-1,2,4-oxadiazolidine-3,5-dione] |
| 91 | O=c1[nH]c(=O)n(Cc2cc(OCc3ccccc3Br)cc(OCc3ccccc3Br)c2)o1 [Compound 75, 2-{3,5-bis[(2-bromobenzyl)oxy]benzyl}-1,2,4-oxadiazolidine-3,5-dione] |
| 95 | COc1cc(Cn2oc(=O)[nH]c2=O)cc(OCc2ccc(C(F)(F)F)cc2)c1OCc1ccc(C(F)(F)F)cc1 [Compound 76, 2-(3-methoxy-4,5-bis{[4-(trifluoromethyl)benzyl]oxy}benzyl)-1,2,4-oxadiazolidine-3,5-dione] |
| 88 | COc1cc(Cn2oc(=O)[nH]c2=O)cc(OCc2cccc(C)c2)c1OCc1cccc(C)c1 [Compound 77, 2-{3-methoxy-4,5-bis[(3-methylbenzyl)oxy]benzyl}-1,2,4-oxadiazolidine-3,5-dione] |
| 91 | COc1cc(Cn2oc(=O)[nH]c2=O)cc(OCc2cccc(Cl)c2)c1OCc1cccc(Cl)c1 [Compound 78, 2-{3,4-bis[(3-chlorobenzyl)oxy]-5-methoxybenzyl}-1,2,4-oxadiazolidine-3,5-dione] |
| 87 | COc1cc(Cn2oc(=O)[nH]c2=O)cc(OCc2cccc(Br)c2)c1OCc1cccc(Br)c1 [Compound 79, 2-{3,4-bis[(3-bromobenzyl)oxy]-5-methoxybenzyl}-1,2,4-oxadiazolidine-3,5-dione] |
| 89 | COc1cc(Cn2oc(=O)[nH]c2=O)cc(OCc2ccccc2Br)c1OCc1ccccc1Br [Compound 80, 2-{3,4-bis[(2-bromobenzyl)oxy]-5-methoxybenzyl}-1,2,4-oxadiazolidine-3,5-dione] |
| 92 | O=c1[nH]c(=O)n(Cc2cccc(OCc3ccc(C(F)(F)F)cc3)c2OCc2ccc(C(F)(F)F)cc2)o1 [Compound 81, 2-(2,3-bis{[4-(trifluoromethyl)benzyl]oxy}benzyl)-1,2,4-oxadiazolidine-3,5-dione] |
